From PMC5813016 (Nature Communications, 2018)
“Also recorded” adds a separate entry of the source. Each block holds one molecule with its values, some of them ahead of it.

Columns and labels:
[1] = Rat pharmacokinetic studies; type: in vivo, Wistar Hannover rat
Experimental: Rat pharmacokinetic studies were conducted at BioDuro, Pharmaceutical Product Development, Inc. (Shanghai, China). Wistar Hannover rats (227–293 gram weight) were obtained from Vital River Laboratories (China). All animal studies were conducted in accordance with the Pfizer Institutional Animal Care and Use Committee (Groton, CT), using protocols approved by Pfizer PDM′s Global BA Committee (2009). Jugular vein-cannulated male Wistar Hanover rats were maintained on a 12 h light/dark cycle for a minimum of three days in a temperature-controlled and humidity-controlled environment with free access to food and water. Individual animals (n = 2 or 3 per dose/route) were administered a single dose of compound by either intravenous injection via tail vein or oral gavage based on body weight. […] The PF-6142 intravenous dose (1 mg/kg) was formulated in saline acidified with three molar equivalents of 1 N hydrochloric acid and the PF-6142 oral dose (5 mg/kg) was formulated in 0.5% methylcellulose. […] Formulations were agitated until all of the test article was dissolved. […] From each rat, serial blood samples were collected via jugular vein cannula prior to dose administration and at the following time points post-dose: 0.033 (i.v. only), 0.083, 0.25, 0.5, 1, 2, 4, 7, and 24 h. […] All blood samples were placed on wet ice until centrifugation. Following centrifugation, the plasma was transferred to polypropylene tubes and stored frozen at either −20 °C to −80 °C until analysis. Urine was collected from all intravenous-dosed rats into collection tubes from the collection intervals of 0–7 h and 7–24 h post-dose. […] All urine samples were stored at −80 °C until analysis. All samples were processed for quantitation of compound concentrations using protein precipitation methodology followed by analysis using liquid chromatography-tandem mass spectrometry (LC-MS/MS). […] The pharmacokinetic parameters (including those in Supplementary Table 3) were computed by non-compartmental analysis[61] using Watson Bioanalytical LIMS version 7.4 (Thermo Fischer Scientific, CA).

[2] = tested on: D1R in rat striatal neurons; assay: D1R desensitization in primary rat striatal neurons (cAMP after SKF-81297 challenge); type: cell-based; conditions: rat striatal neurons pretreated 120 min with 10 μM agonist
Experimental: Striatal neurons were chosen for the desensitization studies because they express endogenous D1 receptors and are a physiologically relevant tissue for examining neurotransmitter receptor desensitization in vitro. […] Both hemispheres of the striatum were microdissected from the embryonic rat brains and placed into HBSS. All isolated tissue was combined and washed 1× with HBSS, followed by trypsinization using a 0.05% trypsin-EDTA solution for 15 min at 37 °C. […] The cell suspension was added to the top of 5 ml complete MEM media with 1 ml of 100% FBS serum at bottom of a 15 ml tube and centrifuged at 1450 rpm for 5 min. The […] and diluted 10-20× in complete MEM and cell density determined. Cells were plated at a density of 35,000 cells/well in poly-ornithine/laminin coated 96 well plates (Biocoat, BD Falcon) and cultured in Neurobasal media supplemented with B27, 1× Glutamax, and penicillin/streptomycin (100 U/mL) (all from Invitrogen) at 37 °C in 5% CO2 for 14-16 days prior to assay. […] After the pretreatment, cells were washed twice at 5 min intervals with 250 μl/well fresh Neurobasal media. […] The concentration of cAMP (nM) from treated wells was interpolated from a cAMP standard curve by non-linear regression least squares analysis using Graphpad Prism 5.02. […] The percent desensitization was calculated as the percent decrease in cAMP relative to vehicle control. Statistical differences were compared by a one-way ANOVA with Dunnett's post-test analysis using Graphpad Prism 5.02.

human D3R = human D3R (Homo sapiens, UniProt P35462); assay: Human D3R radioligand binding ([3H]-7-OH-DPAT, CHO)
[3] = target: human dopamine D1 receptor (hD1R) (Homo sapiens, UniProt P21728); assay: hD1R cAMP HTRF assay (stable HEK293); conditions: percent of maximum response of 5 µM dopamine
[4] = tested on: human D1R / β-arrestin2-GFP in U2OS cells; assay: β-arrestin2-GFP membrane recruitment, TIRFM, U2OS cells; type: cell-based; conditions: U2OS cells expressing human D1R, 1 μM agonist, 10 min
Experimental: This stable U2OS cell line was generated, obtained and licensed from Professor Marc G. Caron, Duke University, Durham, NC, USA. […] The U2OS cells were cultured under antibiotic selection in DMEM (Invitrogen) containing 25 mM glucose and 4 mM L-glutamine supplemented with 10% dialyzed fetal bovine serum, […] Geneticin, […] Zeocin, and 100 U/ml penicillin/streptomycin (all from Invitrogen) and incubated at 37 °C in 5% CO2. Cells from passage four through ten were used in these experiments. Cells were grown in 35 mm glass bottomed imaging dishes (Mattek Corp). Cells were incubated for 1 h in serum free media (SFM) and subsequently treated for 10 min at 37 °C with 0.01% DMSO (control) or 1 μM of all test compounds dissolved in SFM followed by immediate fixation on ice with a 4% paraformaldehyde/1× phosphate buffered saline solution.
TIRFM was used to visualize proteins at the plasma membrane of cells such as D1 receptors and recruited β-arrestin-GFP[65]. All images were captured using a Zeiss PS.1 Elyra Superresolution fluorescence microscope equipped with TIRF module.
Custom image analysis scripts were developed to automatically identify and quantify β-arrestin membrane recruitment. We employed standard methods of image processing based on grayscale morphology. First 16bit images were transformed to 8bit range via square root transformation to improve identification of punctate structure of varying intensity. Images were smoothed with small Gaussian kernel to eliminate noise (h = 2px, σ = 1). At the next step images were transformed via tophat operation with large kernel (radius 30px) to eliminate non-uniformity of the background. Second tophat transform with small kernel (radius 5px) was used to enhance signal and eliminate local intensity variation around puncta. This image was then processed to find locations of puncta intensity peaks via non-maximal suppression filter with 3px radius of region considered in non-maximal suppression, and threshold 20. Finally the boundaries of puncta were identified using marker controlled watershed operation with peaks serving as foreground markers. After having identified each puncta, we used 8bit transformed but otherwise non-processed images to quantify intensity and area of each region. We focused on two endpoints, number of puncta per cell and integrated intensity of puncta per cell (sum of the products of average intensity and area of each puncta within a cell), both adjusted for cell area as described below. The boundaries of the cells were identified via Otsu's method, followed by hole filling and identification of the largest closely connected component. The area of the foreground was used as normalization factor to account for occasional differences in cell areas in the field of view. Specifically all foreground areas across experiment were pooled and divided by the median of the areas to obtain normalization factor for each image. This factor was then used for adjustment for number of puncta and integrated intensity of puncta, which scale with the number of cells. Puncta outside of cell boundaries were filtered out.
The results were aggregated over batches of cells recorded at the same time, with three or more batches per condition, approximately 20 cells per well. The statistical significance was tested via one-way ANOVA with treatment as a factor. To address the problem of severe inequality of variances across the treatment groups assessed via Bartlett′s test, we used square root transformation. All statistical results for the number of puncta per cell and integrated intensity of puncta per cell are presented for transformed variables. Significant ANOVA findings were followed with post-hoc comparisons with Dunnett′s procedure in case of comparisons with the control group or with false discover rate adjustment[69] otherwise. All statistical tests were performed two-tailed at a 5% level of significance.

human D1R = human D1R (Homo sapiens, UniProt P21728); assay: Human D1R radioligand binding ([3H]-SCH23390, LTK cells)
human D5R = human D5R (Homo sapiens, UniProt P21918); assay: Human D5R radioligand binding ([3H]-SCH23390, CHEM-1)
[5] = target: human dopamine D5 receptor (hD5R) (Homo sapiens, UniProt P21918); assay: hD5R cAMP HTRF assay (stable HEK293); conditions: for Efficacy hD5R cAMP: percent of maximum response of 5 µM dopamine
human D2R (hD2R) = human D2R (hD2R) (Homo sapiens, UniProt P14416); assay: Human D2R radioligand binding ([3H]-spiperone, CHO)
cynomolgus monkeys = assay: Monkey spontaneous eye blink rate (EBR); type: in vivo, Macaca fasicularis; conditions: monkey; data not shown
Experimental: Increase in spontaneous EBR has been previously shown with D1 agonists and partial agonists. To confirm the specificity of the response in our particular assay set up for D1 activation, we verified that the D1 receptor antagonist SCH-39166 fully blocks the increased eye blink response of non-catechol full D1 agonist that is a close structural analog of the compounds in this paper (data not shown). All procedures involving animals were conducted with approval of the Pfizer Institutional Animal Care and Use Committee (Groton, CT) and compliant with the regulations and standards of the Animal Welfare Act (9CFR2, 9CFR3). Three male Cynomolgus macaques (Macaca fasicularis) of Mauritian origin, 7–10 years old, SPF for CHV-1, SIV, STLV1 and SRV 1, 2, 5 were used. Animals were exposed to 12 h light/dark cycle (lights on 6:00 AM – 6:00 PM). […] EBRS were recorded from chaired animals for 2 min at 10 min intervals by a trained observer through direct visual observation who was blinded to experimental conditions. Animals were chaired at approximately 7:30 AM. After vehicle or compound administration, eye blinks were recorded during the following intervals: from 10 to 50 min (0–1 h), 130 to 170 min (2–3 h), 310 to 350 min (5–6 h). Animals were returned to their home cages between two consecutive sessions and after the final recording of the day. Blood samples (1 ml) were collected from the femoral vein at 1 and 5 h after the first dose to quantitate plasma compound levels. […] A77636 was dissolved in 0.9% sterile saline, formulated fresh prior to administration, and given once per day for 3 days. […] Vehicle control was administered on day 0.
EBR data were first converted to blinks per minute. EBR were averaged by binning into 3 periods: Period 1 (0–1 h after the first dose) EBR = mean of 10, 20, 30, 40, and 50 min recordings; Period 2 (2–3 h after the first dose) EBR = mean of 130, 140, 150, 160, and 170 min recordings; Period 3 (5–6 h after the first dose) EBR = mean of 310, 320, 330, 340, and 350 min recordings. For Fig. 5c EBR data were averaged by binning data from periods 1 through 3 as daily EBR. Data from each animal was then normalized to their respective Day 1 EBR and expressed as percent of Day 1 EBR for each drug. EBR data were analyzed with SAS® 9.4 (SAS Institute Inc. Cary, NC) using a mixed linear model (Mixed Procedure) for repeated measures. The model included treatment, day, time period, and their interactions as fixed effects, and animal and animal-by-day interaction as random effects. A first order autoregressive model was used for longitudinal covariance structure. Differences between least squares means across days, overall and for each time period, were tested and adjusted for multiple comparisons via Tukey method. […]

Sequence of human D3R (P35462 whole entry): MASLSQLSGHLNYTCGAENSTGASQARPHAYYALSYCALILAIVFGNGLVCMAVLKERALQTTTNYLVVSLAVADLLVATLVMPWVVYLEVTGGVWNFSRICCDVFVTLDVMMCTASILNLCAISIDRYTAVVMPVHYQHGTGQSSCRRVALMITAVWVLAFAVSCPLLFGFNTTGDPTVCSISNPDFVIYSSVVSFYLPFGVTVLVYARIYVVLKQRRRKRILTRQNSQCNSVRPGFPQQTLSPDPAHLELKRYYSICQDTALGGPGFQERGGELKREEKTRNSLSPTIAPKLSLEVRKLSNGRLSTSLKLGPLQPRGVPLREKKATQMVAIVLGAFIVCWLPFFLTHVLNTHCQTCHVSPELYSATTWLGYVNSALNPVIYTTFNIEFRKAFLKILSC
Sequence of human dopamine D5 receptor (hD5R) (P21918 whole entry): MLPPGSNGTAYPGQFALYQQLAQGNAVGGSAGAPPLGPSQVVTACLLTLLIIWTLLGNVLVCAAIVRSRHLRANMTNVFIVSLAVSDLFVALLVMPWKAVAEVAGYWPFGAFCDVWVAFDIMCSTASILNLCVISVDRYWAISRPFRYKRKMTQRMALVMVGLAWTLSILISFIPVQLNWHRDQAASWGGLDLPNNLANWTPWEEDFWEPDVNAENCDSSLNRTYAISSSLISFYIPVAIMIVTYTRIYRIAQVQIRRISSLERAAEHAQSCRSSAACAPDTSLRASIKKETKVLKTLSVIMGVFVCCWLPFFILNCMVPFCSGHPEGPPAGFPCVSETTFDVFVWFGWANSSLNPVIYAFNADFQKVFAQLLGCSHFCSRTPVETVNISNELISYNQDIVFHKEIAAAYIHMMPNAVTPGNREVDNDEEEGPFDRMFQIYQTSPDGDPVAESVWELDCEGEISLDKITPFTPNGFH
Sequence of human dopamine D1 receptor (hD1R) (P21728 whole entry): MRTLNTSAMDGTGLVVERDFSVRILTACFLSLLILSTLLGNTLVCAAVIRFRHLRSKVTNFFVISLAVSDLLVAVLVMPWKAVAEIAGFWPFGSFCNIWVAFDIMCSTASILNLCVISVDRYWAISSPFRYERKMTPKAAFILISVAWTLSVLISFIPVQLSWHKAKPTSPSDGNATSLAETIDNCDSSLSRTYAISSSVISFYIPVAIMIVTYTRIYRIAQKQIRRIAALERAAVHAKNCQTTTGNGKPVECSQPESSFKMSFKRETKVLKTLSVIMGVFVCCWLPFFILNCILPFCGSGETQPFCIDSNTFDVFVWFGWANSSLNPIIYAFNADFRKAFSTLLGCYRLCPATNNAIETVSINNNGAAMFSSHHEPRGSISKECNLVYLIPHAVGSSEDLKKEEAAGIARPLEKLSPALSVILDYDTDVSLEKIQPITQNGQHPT
Sequence of human D2R (hD2R) (P14416 whole entry): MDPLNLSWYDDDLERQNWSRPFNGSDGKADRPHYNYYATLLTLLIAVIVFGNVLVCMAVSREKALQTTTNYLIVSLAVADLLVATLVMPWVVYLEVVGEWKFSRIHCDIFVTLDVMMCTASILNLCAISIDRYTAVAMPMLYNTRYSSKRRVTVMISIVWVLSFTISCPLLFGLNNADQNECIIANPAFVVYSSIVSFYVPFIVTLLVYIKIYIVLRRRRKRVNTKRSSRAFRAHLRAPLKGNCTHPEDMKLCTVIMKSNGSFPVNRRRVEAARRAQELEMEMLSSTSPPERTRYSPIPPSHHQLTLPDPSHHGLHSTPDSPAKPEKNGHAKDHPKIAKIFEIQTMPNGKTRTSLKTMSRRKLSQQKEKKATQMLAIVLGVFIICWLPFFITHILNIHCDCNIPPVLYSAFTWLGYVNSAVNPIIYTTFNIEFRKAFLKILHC
Sequence of human D1R (P21728 whole entry): as the sequence (P21728 whole entry) above
Sequence of human D5R (P21918 whole entry): as the sequence (P21918 whole entry) above

Structure (SMILES): Oc1cc2c(cc1O)C(c1ccccc1)CNCC2 (stereo not shown) [SKF-38393, reference compound]
CL ([1]; intravenous (1 mg/kg; PF-2334 0.1 mg/kg)): rapid clearance
clearance ([1]; male, Wistar Hannover, plasma, iv): 245 mL/min/kg
Vd ([1]; male, Wistar Hannover, plasma, iv, read-out: Vdss): 3.9 L/kg
bioavailability ([1]; male, Wistar Hannover, plasma, oral bioavailability): 9.5%
half-life ([1]; male, Wistar Hannover, plasma, read-out: t½ (converted)): 24 min
F ([1]; oral bioavailability): low oral bioavailability
percent desensitization of D1R cAMP response to 1 μM SKF-81297 challenge [2]: 40–60%
Ki (human D3R): > 671 nM
Efficacy hD1R cAMP [3]: 41±3

Ki (human D3R): 387 ± 21 nM
Efficacy hD1R cAMP [3]: 100±2
Structure (SMILES): Oc1cc2c(cc1O)[C@H]1c3ccccc3CN[C@@H]1CC2 (racemic) [Dihydrexidine, reference compound]
β-arrestin-GFP recruitment to the plasma membrane (TIRFM) [4]: significantly higher signal

Structure (SMILES): NCCc1ccc(O)c(O)c1 [Dopamine, reference compound]
β-arrestin-GFP recruitment to the plasma membrane (TIRFM) [4]: membrane associated β-arrestin puncta appeared rapidly; also recorded: significantly higher signal

Structure (SMILES): Cn1nccc1-c1ccc(Oc2nccc3occc23)cc1 [PF-4211]
Ki (human D1R): 3140 ± 335 nM
Ki (human D5R): 1890 ± 508 nM
EC50 [5]: 1780 ± 144 nM
Efficacy hD5R cAMP [5]: 53±1
Ki (human D2R (hD2R)): > 4280 nM
Ki (human D3R): > 671 nM

Structure (SMILES): CN1CCc2cc(Cl)c(O)cc2[C@H]2c3ccccc3CC[C@@H]21 [SCH-39166]
blockade of EBR increase induced by a non-catechol full D1 agonist (cynomolgus monkeys): fully blocks

Efficacy hD5R cAMP [5]: 100±1
Structure (SMILES): Oc1cc2c(c(Cl)c1O)CCNCC2c1ccccc1 (stereo not shown) [SKF-81297, reference compound]
β-arrestin-GFP recruitment to the plasma membrane (TIRFM) [4]: membrane associated β-arrestin puncta appeared rapidly
